In patent EP0118750A2, “Regeneration of NAD(P) cofactor” (PHILLIPS PETROLEUM COMPANY, priority 1983, dated 1984):

Molecular target: T1, horse liver alcohol dehydrogenase (Equus caballus, UniProt P00327)
T1 construct: 0.5 mL horse liver-alcohol dehydrogenase solution (Sigma-1 mg/mL); purchased Sigma; host or cells: horse liver
Assay: Dissolved oxygen decrease on adding alcohol substrates to the cofactor regeneration system (NAD, HL-ADH, acetaldehyde, alcohol oxidase)
Format: biochemical
Details: relative decrease in dissolved oxygen level upon addition of 0.1 mL of 2.5 vol % solution of the alcohol; phosphate buffer pH 8
Method: The following reagents were admixed in a small beaker: • 2.7 mL aerated potassium phosphate buffer (0.05 M; pH 8) • 0.01 mL of NAD solution (10 mg/mL or 0.025 M) • 0.5 mL horse liver-alcohol dehydrogenase solution (Sigma-1 mg/mL) • 0.1 mL of 1 M acetaldehyde • 0.1 mL of saturated alcohol oxidase (~ 10 mg/mL, prepared as described in example I)
A dissolved oxygen probe, connected to an electronic signal differentiator, was placed in the above prepared solution. The relative decrease in dissolved oxygen level (ADO) was monitored upon addition of 0.1 mL of 2.5 vol % solutions of several alcohols: […]

T1 sequence (P00327 2-375 limits assumed): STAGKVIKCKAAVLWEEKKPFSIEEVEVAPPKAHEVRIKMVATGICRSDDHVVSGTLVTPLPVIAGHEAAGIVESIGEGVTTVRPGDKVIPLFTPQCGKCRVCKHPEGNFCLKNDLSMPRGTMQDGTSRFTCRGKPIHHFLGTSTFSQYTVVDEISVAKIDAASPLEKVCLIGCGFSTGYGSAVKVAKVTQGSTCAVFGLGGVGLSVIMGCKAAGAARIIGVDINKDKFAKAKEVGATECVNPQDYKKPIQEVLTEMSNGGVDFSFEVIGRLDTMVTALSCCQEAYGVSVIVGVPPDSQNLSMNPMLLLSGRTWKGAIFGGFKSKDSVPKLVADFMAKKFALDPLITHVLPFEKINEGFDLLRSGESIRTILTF

Structure (SMILES) | ΔDO
OCCCCO [1,4-butanediol] | Yes
CCC(C)O (stereo not shown) [2-butanol] | Yes
OC=CCCO [3-buten-1,4-diol] | Yes
C=CC(C)O (stereo not shown) [3-buten-2-ol] | Yes
C=CCCCCCCCCO [9-decen-1-ol] | Yes
OC1CCCCC1 [cyclohexanol] | Yes
CC(C)(C)O [tertiary butanol] | No
